Read-outs that look alike come from different tables or passages of the source.
Tests used:
[1] = biological target: T1, h P2X3 (Homo sapiens, UniProt P56373); experiment: In vitro electrophysiology assay for P2X3 (Sophion Qube automated whole-cell patch clamp); format: cell-based; settings: for h P2X3 (pIC50 range of activity): Table 3
T1 sequence (P56373 1-397): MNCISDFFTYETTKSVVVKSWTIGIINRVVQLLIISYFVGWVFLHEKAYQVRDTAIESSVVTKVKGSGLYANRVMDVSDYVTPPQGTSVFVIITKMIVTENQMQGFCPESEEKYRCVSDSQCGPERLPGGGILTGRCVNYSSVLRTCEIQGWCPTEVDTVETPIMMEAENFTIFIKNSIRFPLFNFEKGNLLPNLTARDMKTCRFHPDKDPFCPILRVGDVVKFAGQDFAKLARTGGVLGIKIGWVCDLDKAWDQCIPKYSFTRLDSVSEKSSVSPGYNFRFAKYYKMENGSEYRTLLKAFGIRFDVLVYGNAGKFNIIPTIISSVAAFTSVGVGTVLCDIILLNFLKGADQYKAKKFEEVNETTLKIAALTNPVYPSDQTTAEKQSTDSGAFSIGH
Protocol: In Vitro Electrophysiology Assay for P2X3
(§1) Cells expressing P2X3 receptors were grown according to standard practice and maintained at 37° C. in a 5% humidified CO2 atmosphere. The cells were seeded into T175 flask 2 days prior to the day of the assay and dissociated from the flasks using TrypLE when grown to confluence of 80-90%. The dissociated cells were resuspended in serum free media at a cell density of 3×10^6 cells/ml and loaded onto the Sophion Qube automated patch-clamp system. The extracellular assay buffer contained 145 mM NaCl, 4 mM KCl, 2 mM CaCl2, 1 mM MgCl2, 10 mM HEPES, and 10 mM glucose at pH 7.4. The intracellular assay solution contained 140 mM CsF, 10 mM NaCl, 10 mM EGTA, 10 mM HEPES at pH 7.2. Agonist stock solutions were prepared in H2O and diluted in bath solution prior to use. All antagonists were prepared as 10 mM stock solutions in DMSO and diluted in bath solution prior to use. All experiments were performed under the whole-cell patch clamp configuration at room temperature with 384 individual cells being voltage clamped at −60 mV simultaneously on the Sophion Qube instrument. Two baseline responses were established with the application of α,β-MeATP (800 nM), with the subsequent agonist applications being washed out using extracellular assay buffer containing 0.5 U/ml apyrase. Following the second agonist application, antagonist was incubated in the absence of α,β-MeATP for 10 minutes. After antagonist preincubation, 800 nM α,β-MeATP and antagonist were co-administered to determine the inhibitory effect of the antagonist. One concentration of an antagonist was assessed against a single cell, with different concentrations of the antagonist applied to other cells on the 384 recording substrate. The control P2X3 current amplitude was taken from the peak current amplitude from the second agonist response prior to preincubation with antagonist. The peak P2X3 current amplitude in the presence of antagonist was used to calculate the inhibitory effect at each concentration of the antagonist according to the following equation:
Percentage inhibition of P2X3=(P2X3 control peak amplitude−P2X3 antagonist peak amplitude)/P2X3 control peak amplitude)*100
Concentration-response curves were constructed from ten different concentrations with each concentration of antagonist tested on at least two individual cells. The concentration of the antagonist to inhibit P2X3 current by 50% (IC50) was determined by fitting the data with the following equation:
Y=a+[(b−a)/(1+10^((log c−x)d)]
Where ‘a’ is minimum response, ‘b’ is maximum response, ‘c’ is IC50 and ‘d’ is Hill slope.
The results for individual compounds are provided below in Table 2 and are expressed as range of activity.

[2] = biological target: T2, h P2X2/3 (Homo sapiens, UniProt P56373+Q9UBL9); experiment: In vitro electrophysiology assay for P2X2/3 (same protocol as the P2X3 assay, 10 μM ATP as agonist); format: cell-based; settings: Table 3; agonist 10 μM ATP, mean current amplitude seven seconds after agonist; read-out: h P2X2/3 (pIC50 range of activity) (converted)
T2 construct: host or cells: cells not described; same protocol as the P2X3 assay
T2 sequence (P56373 1-397): T1 sequence (P56373 1-397)
T2 sequence (Q9UBL9 1-471): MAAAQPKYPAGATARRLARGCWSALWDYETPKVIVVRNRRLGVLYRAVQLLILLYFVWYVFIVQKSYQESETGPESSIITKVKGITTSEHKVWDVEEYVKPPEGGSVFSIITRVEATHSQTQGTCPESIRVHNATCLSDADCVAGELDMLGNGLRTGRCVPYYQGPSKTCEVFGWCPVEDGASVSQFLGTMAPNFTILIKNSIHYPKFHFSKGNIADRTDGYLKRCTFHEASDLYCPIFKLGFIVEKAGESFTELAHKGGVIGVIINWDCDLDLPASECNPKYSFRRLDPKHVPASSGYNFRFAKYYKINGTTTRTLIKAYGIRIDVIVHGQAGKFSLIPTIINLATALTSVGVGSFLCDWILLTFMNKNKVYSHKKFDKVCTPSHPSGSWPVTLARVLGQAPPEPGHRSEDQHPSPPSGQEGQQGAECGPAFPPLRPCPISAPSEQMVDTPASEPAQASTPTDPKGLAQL
Protocol: as §1, with “The peak P2X3 current amplitude in the presence of antagonist was used to calculate the inhibitory effect at each concentration of the antagonist according to the following equation:” left out
The same assay protocol was used for the P2X2/3 assay as the P2X3 assay with two modifications: 1) 10 μM ATP was used as the agonist; and 2) the mean current amplitude was measured seven seconds after the application of agonist.

[3] = Table 2, agonist 800 nM α,β-MeATP, 10 min antagonist preincubation, peak current, read-out: h P2X3 (pIC50 range of activity) (converted)
[4] = agonist 800 nM α,β-MeATP, peak current

With `Cc1cnc(-c2ccc3nncc(N[C@H](C)c4cnc(C(F)(F)F)nc4)c3c2)s1` [Example 3, 6-(5-Methylthiazol-2-yl)-N-((1R)-1-(2-(trifluoromethyl)pyrimidin-5-yl)ethyl)cinnolin-4-amine] the IC50 [1, 3] was under 316 nM.

With `C[C@@H](Nc1cnnc2ccc(-c3ccc(F)cc3)cc12)c1cnc(C(F)(F)F)nc1` [Example 2, 6-(4-Fluorophenyl)-N-((1R)-1-(2-(trifluoromethyl)pyrimidin-5-yl)ethyl)cinnolin-4-amine] the IC50 [2] was 316 to 3160 nM, the IC50 [1, 3] was under 316 nM and the “h P2X3 (pIC50 range of activity)” value [1, 4] was “+++ (+++: pIC50 h P2X3 or h P2X2/3 > 6.5)”.

Compound `C[C@@H](Nc1ccnc2ccc(-c3ccc(F)cc3)cc12)c1cnc(C(F)(F)F)nc1` [Example 12, (R)-6-(4-fluorophenyl)-N-(1-(2-(trifluoromethyl)pyrimidin-5-yl)ethyl)quinolin-4-amine] has an IC50 [1, 3] of 316 to 3160 nM.

`Cc1ccc(CNc2cnnc3ccc(-c4ccc(F)cc4)cc23)nn1` [Example 1, 6-(4-Fluorophenyl)-N-((6-methylpyridazin-3-yl)methyl)cinnolin-4-amine] gave an IC50 [1, 3] of under 316 nM.

For `Cc1ccc(-c2ccc3nncc(N[C@H](C)c4cnc(C(F)(F)F)nc4)c3c2)nc1` [Example 4, 6-(5-Methylpyridin-2-yl)-N-((1R)-1-(2-(trifluoromethyl)pyrimidin-5-yl)ethyl)cinnolin-4-amine], the IC50 [2] was 316 to 3160 nM, the IC50 [1, 3] was under 316 nM and the “h P2X3 (pIC50 range of activity)” value [1, 4] was “+++ (+++: pIC50 h P2X3 or h P2X2/3 > 6.5)”.

`Cc1ccc(CNc2ccnc3ccc(-c4ccc(F)cc4)cc23)nn1` [Example 11, 6-(4-Fluorophenyl)-N-((6-methylpyridazin-3-yl)methyl)quinolin-4-amine] showed an IC50 [1, 3] of under 316 nM.

Work on `Cc1ccc(-c2ccc3nncc(NCc4ccc(C)nn4)c3c2)nc1` [Example 5, N-((6-methylpyridazin-3-yl)methyl)-6-(5-methylpyridin-2-yl)cinnolin-4-amine] yielded an IC50 [1, 3] of under 316 nM.

Work on `COc1cc(-c2ccc(F)cc2)cc2c(N[C@H](C)c3ccc(C)nn3)cnnc12` [Example 6, (R)-6-(4-fluorophenyl)-8-methoxy-N-(1-(6-methylpyridazin-3-yl)ethyl)cinnolin-4-amine] yielded an IC50 [1, 3] of under 316 nM.

`Cc1ccc(-c2ccc3nccc(NCc4ccc(C)nn4)c3c2)nc1` [Example 10, N-((6-methylpyridazin-3-yl)methyl)-6-(5-methylpyridin-2-yl)quinolin-4-amine] was tested, and the IC50 [1, 3] was under 316 nM.

For `COc1cc(-c2ncc(C)cn2)cc2c(N[C@H](C)c3ccc(C)nn3)cnnc12` [Example 8, (R)-8-methoxy-N-(1-(6-methylpyridazin-3-yl)ethyl)-6-(5-methylpyrimidin-2-yl)cinnolin-4-amine], the IC50 [2] was 3160 to 31600 nM, the IC50 [1, 3] was under 316 nM and the “h P2X3 (pIC50 range of activity)” value [1, 4] was “+++ (+++: pIC50 h P2X3 or h P2X2/3 > 6.5)”.

`Cc1ccc([C@@H](C)Nc2cnnc3ccc(-c4ccc(F)cc4)cc23)nn1` [Example 13, 6-(4-Fluorophenyl)-N-[(1R)-1-(6-methylpyridazin-3-yl)ethyl]cinnolin-4-amine] showed an IC50 [1, 3] of under 316 nM.

Compound `Cc1ccc(-c2ccc3nccc(N[C@H](C)c4cnc(C(F)(F)F)nc4)c3c2)nc1` [Example 9, (R)-6-(5-methylpyridin-2-yl)-N-(1-(2-(trifluoromethyl)pyrimidin-5-yl)ethyl) quinolin-4-amine] has an IC50 [1, 3] of under 316 nM.

`COc1cc(-c2ccc(F)cc2)cc2c(N[C@H](C)c3cnc(C(F)(F)F)nc3)cnnc12` [Example 7, (R)-6-(4-fluorophenyl)-8-methoxy-N-(1-(2-(trifluoromethyl)pyrimidin-5-yl)ethyl)cinnolin-4-amine] gave an IC50 [1, 3] of under 316 nM.

`Cc1ccc(CNc2nccc3ccc(-c4ccc(F)cc4)cc23)nn1` [comparative Example A, reference compound] was tested, and the IC50 ([1]; in vitro assay as described for P2X3, read-out: activity on receptor P2X3 expressed as pIC50 (converted)) was over 3160 nM.

From US20230416233A1, “(AZA)QUINOLINE 4-AMINES DERIVATIVES AS P2X3 INHIBITORS” (CHIESI FARMACEUTICI S.P.A., priority 2020, published 2023)
